# Assay results: patent publication US8455487B2, “Methods of controlling insects” (Syngenta Participations AG, priority 2007, dated 2013)
# Legend:
# pollen beetles [1] = experiment: B.3 field trial, control of pollen beetle in oilseed rape, extremely high pest pressure (vs lambda cyhalothrin and thiacloprid); format: in vivo, Meligethes; conditions: foliar
# Method: A third field trial (randomized complete block) was carried out on oilseed rape, which had reached crop stage BBCH 55 (new growth with 30 to 60 cm height; flower buds, open flowers, some small seed pods formed) and which was under attack by actively foraging pollen beetles (adult beetles: 10 beetle/flower cluster). The active ingredient pymetrozine ((E)-4,5-dihydro-6-methyl-4-(3-pyridylmethyleneamino)-1,2,4-triazin-3(2H)-one; formulated as Plenum 50% WG) was tested at rates of 50, 100 and 150 g ai/ha and compared to the activity of lambda cyhalothrin (7.5 g ai/ha) and thiacloprid (72 g ai/ha). Foliar application of the compounds under test was effected using a conventional spray boom and a volume of 400 L/ha. The degree of pest control was assessed pre-spray, and compared to that observed 2 hours, 1, 3 and 5 days after application.
# [2] = system: pyrethroid resistant Pollen Beetle; experiment: B.4 field trial, control of pyrethroid resistant pollen beetle in oilseed rape; format: in vivo, Meligethes
# Method: A further field trial (randomized complete block, 30 racemes per plot) was carried out on oilseed rape, which had reached crop stage BBCH 57-59 (individual flower buds—secondary inflorescence—visible but still closed) and which was under attack by actively foraging pollen beetles (adult beetles: average of 30 adult beetles/plot). The active ingredient pymetrozine ((E)-4,5-dihydro-6-methyl-4-(3-pyridylmethylene-amino)-1,2,4-triazin-3(2H)-one; formulated as Plenum 50% WG) was tested at rates of 50, 100 and 150 g ai/ha and compared to the activity of lambda cyhalothrin (7.5 g ai/ha) and thiacloprid (72 g ai/ha). Foliar application of the compounds under test was effected using a conventional spray boom and a volume of 500 L/ha. The degree of pest control was assessed pre-spray, and compared to that observed 1 and 3 days after application.
# pollen beetles [3] = experiment: B.2 unreplicated field test, control of pollen beetle in winter oilseed rape (vs lambda-cyhalothrin); format: in vivo, Meligethes; conditions: for % Control 1DAA: foliar
# Method: An unreplicated field test was carried out on Winter oilseed rape, (crop stage BBCH 55) and which was under attack by actively foraging pollen beetles (adult beetles: 2.32 beetle/flower cluster). The active ingredient pymetrozine ((E)-4,5-dihydro-6-methyl-4-(3-pyridylmethyleneamino)-1,2,4-triazin-3(2H)-one; formulated as Chess 50% WG) was tested at rates of 12.5, 50 and 200 g ai/ha and compared to the activity of lambda-cyhalothrin (formulated as Karate Zeon 10CS) at 5 g ai/ha. Foliar application of the compounds under test was effected using a conventional spray boom. The degree of pest infestation was assessed pre-spray (average of 2.3 adult pollen beetles per flower cluster in the check plot) and compared to that observed 1day after application.
# [4] = system: pyrethroid resistant Pollen Beetle; experiment: B.5 three field trials, control of pyrethroid resistant pollen beetle in oilseed rape; format: in vivo, Meligethes; conditions: foliar
# Method: Three further field trials (randomized complete block, 25 plants per plot) were carried out on oilseed rape, which had reached crop stage BBCH 57-63 and which was under attack by actively foraging pollen beetles (adult beetles: average of 27 adult beetles/plot). The active ingredient pymetrozine ((E)-4,5-dihydro-6-methyl-4-(3-pyridylmethylene-amino)-1,2,4-triazin-3(2H)-one; formulated as Plenum 50% WG) was tested at rates of 75, 100 and 150 g ai/ha and compared to the activity of lambda cyhalothrin (7.5 g ai/ha) and thiacloprid (72 g ai/ha). Foliar application of the compounds under test was effected using a conventional spray boom and a volume of 300 L/ha. The degree of pest control was assessed pre-spray, and compared to that observed 1, 4 and 7 days after application.
# [5] = system: insects from the Coccinellidae family; conditions: Sechser et al. 2002 J. Pest Science 75:72-77; cited from earlier work
# [6] = system: insects from the Carabidae family; conditions: Sechser et al. 2002 J. Pest Science 75:72-77; cited from earlier work
# pollen beetles [7] = experiment: B.1 field trial, control of pollen beetle in winter oilseed rape (vs Lavender oil and Quassan 30); format: in vivo, Meligethes; conditions: foliar
# Method: A randomized complete block field trial was carried out on winter oilseed rape, which had reached crop stage BBCH 55 (flower buds, open flowers, some small seed pods formed) and which was under attack by actively foraging pollen beetles (adult beetles: 1 beetle/flower cluster). The active ingredient pymetrozine ((E)-4,5-dihydro-6-methyl-4-(3-pyridylmethyleneamino)-1,2,4-triazin-3(2H)-one; formulated as Plenum 50% WG) was tested at rates of 50 and 150 g ai/ha and compared to the activity of Lavender oil (at rates of 1000 g ai/ha and 2500 g ai/ha) and Quassia amara extract (Quassan 30; applied at rates of 30, 90 and 270 g ai/ha). Foliar application of the compounds under test was effected using a conventional spray boom and a volume of 500 L/ha. The degree of pest control was assessed pre-spray, and compared to that observed 1, 3 and 5 days after application.
# [8] = system: insects from the Staphylinidae family; conditions: Sechser et al. 2002 J. Pest Science 75:72-77; cited from earlier work
compound,measurement,setting,value
CC1(C)[C@H](C(=O)O[C@H](C#N)c2cccc(Oc3ccccc3)c2)[C@@H]1/C=C(\Cl)C(F)(F)F (racemic) [Lambda cyhalothrin],% Control,"pollen beetles [1]; 7.5 g ai/ha, 1 DAA",75%
same,% Control,"pollen beetles [1]; 7.5 g ai/ha, 3 DAA",92%
same,% Control,"pollen beetles [1]; 7.5 g ai/ha, 5 DAA",23%
same,% Control,"pollen beetles [1]; 7.5 g ai/ha, 2 hrs aa",63.4%
same,% Control,"[2]; 7.5 g ai/ha, foliar, 1 DAA",73%
same,% Control,"[2]; 7.5 g ai/ha, foliar, 3 DAA",60%
same,level of control (in words),[2]; recommended field rate (7.5 g ai/ha),low level of control
same,% Control 1DAA,"pollen beetles [3]; 5 g ai/ha, 1DAA",100%
same,Mean % Control,"[4]; 7.5 g ai/ha, 1 DAA",33.0%
same,Mean % Control,"[4]; 7.5 g ai/ha, 4 DAA",20.0%
same,Mean % Control,"[4]; 7.5 g ai/ha, 7 DAA",18.1%
"CC1=NNC(=O)N(N=Cc2cccnc2)C1 [Pymetrozine, 4,5-dihydro-6-methyl-4-(3-pyridylmethyleneamino)-1,2,4-triazin-3(2H)-one]",effect on insects (in words),[5],no effect
same,effect on insects (in words),[6],no effect
same,% Control,"pollen beetles [1]; 50 g ai/ha, 1 DAA",19%
same,% Control,"pollen beetles [1]; 50 g ai/ha, 3 DAA",44%
same,% Control,"pollen beetles [1]; 50 g ai/ha, 5DAA",0%
same,% Control,"pollen beetles [1]; 50 g ai/ha, 2 hrs aa",37.3%
same,% Control,"pollen beetles [1]; 100 g ai/ha, 1 DAA",61%
same,% Control,"pollen beetles [1]; 100 g ai/ha, 3 DAA",77%
same,% Control,"pollen beetles [1]; 100 g ai/ha, 5 DAA",0%
same,% Control,"pollen beetles [1]; 100 g ai/ha, 2 hrs aa",39.9%
same,% Control,"pollen beetles [1]; 150 g ai/ha, 1 DAA",61%
same,% Control,"pollen beetles [1]; 150 g ai/ha, 3 DAA",84%
same,% Control,"pollen beetles [1]; 150 g ai/ha, 5DAA",0%
same,% Control,"pollen beetles [1]; 150 g ai/ha, 2 hrs aa",42.5%
same,% Control,"[2]; 3DAA, rates 50, 100 and 150 g ai/ha",> 90%
same,% Control,"[2]; 50 g ai/ha, foliar, 1 DAA",60%
same,% Control,"[2]; 50 g ai/ha, foliar, 3 DAA",96%
same,% Control,"[2]; 100 g ai/ha, foliar, 1 DAA",62%
same,% Control,"[2]; 100 g ai/ha, foliar, 3 DAA",97%
same,% Control,"[2]; 150 g ai/ha, foliar, 1 DAA",78%
same,% Control,"[2]; 150 g ai/ha, foliar, 3 DAA",96%
same,% Control 1DAA,"pollen beetles [3]; 12.5 g ai/ha, 1DAA",90%
same,% Control 1DAA,"pollen beetles [3]; 50 g ai/ha, 1 DAA",98%
same,% Control 1DAA,"pollen beetles [3]; 200 g ai/ha, 1DAA",100%
same,control of Meligethes (in words),"pollen beetles [3]; at all rates (12.5, 50, 200 g ai/ha), 1DAA",excellent control
same,Mean % Control,"[4]; 75 g ai/ha, 1 DAA",89.9%
same,Mean % Control,"[4]; 75 g ai/ha, 4 DAA",72.4%
same,Mean % Control,"[4]; 75 g ai/ha, 7 DAA",92.8%
same,Mean % Control,"[4]; 100 g ai/ha, 1 DAA",87.2%
same,Mean % Control,"[4]; 100 g ai/ha, 4 DAA",72.9%
same,Mean % Control,"[4]; 100 g ai/ha, 7 DAA",92.8%
same,Mean % Control,"[4]; 150 g ai/ha, 1 DAA",95.2%
same,Mean % Control,"[4]; 150 g ai/ha, 4 DAA",77.4%
same,Mean % Control,"[4]; 150 g ai/ha, 7 DAA",91.3%
same,Percentage Control,"pollen beetles [7]; 50 g ai/ha, 1 DAA",90%
same,Percentage Control,"pollen beetles [7]; 50 g ai/ha, 3 DAA",98%
same,Percentage Control,"pollen beetles [7]; 50 g ai/ha, 5DAA",99%
same,Percentage Control,"pollen beetles [7]; 150 g ai/ha, 1 DAA",86%
same,Percentage Control,"pollen beetles [7]; 150 g ai/ha, 3 DAA",92%
same,Percentage Control,"pollen beetles [7]; 150 g ai/ha, 5DAA",95%
same,effect on insects (in words),[8],no effect
N#C/N=C1\SCCN1Cc1ccc(Cl)nc1 [Thiacloprid],% Control,"pollen beetles [1]; 72 g ai/ha, 1 DAA",67%
same,% Control,"pollen beetles [1]; 72 g ai/ha, 3 DAA",92%
same,% Control,"pollen beetles [1]; 72 g ai/ha, 5 DAA",0%
same,% Control,"pollen beetles [1]; 72 g ai/ha, 2 hrs aa",39.9%
same,% Control,"[2]; 72 g ai/ha, foliar, 1 DAA",63%
same,% Control,"[2]; 72 g ai/ha, foliar, 3 DAA",94%
same,Mean % Control,"[4]; 72 g ai/ha, 1 DAA",74.7%
same,Mean % Control,"[4]; 72 g ai/ha, 4 DAA",92.5%
same,Mean % Control,"[4]; 72 g ai/ha, 7 DAA",78.3%
